Experimental data taken from ChEMBL document CHEMBL1201862, “PubChem BioAssay data set” (2004).
Active and inactive are the calls of the source.

Experiments:
[1] = target: Photoreceptor-specific nuclear receptor (Homo sapiens, UniProt Q9Y5X4); assay type: functional, cell-based;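 note: CHO-S cells with Gal4-NCOR and VP16-NR2E3 two-hybrid luciferase reporter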
[2] = Counterscreen for activators of the function of SWI/SNF related, matrix associated, actin dependent regulator of chromatin, subfamily a, member 2 (SMARCA2, BRM): Luminescence-based cell-based high throughput dose response assay to identify non-selective compounds using the VP16 reporter assay.; assay type: functional
[3] = viability loss in HEK293T cells – cell-based, cherry-picks, cytotoxicity control for HIV Vif inhibitor project, dose response (AID 652208); assay type: functional
[4] = target: SWI/SNF-related matrix-associated actin-dependent regulator of chromatin subfamily A member 2 (Homo sapiens, UniProt P51531); test: Luminescence-based cell-based high throughput dose response assay to identify activators of the function of SWI/SNF related, matrix associated, actin dependent regulator of chromatin, subfamily a, member 2 (SMARCA2, BRM).; assay type: functional
[5] = tested on: INS1; test: INS-1E survival protection against cytokine death – cell-based, luminescence, retest, dose response (AID 449756); assay type: functional; conditions: Rattus norvegicus;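 note: cell death triggered by IL-1 beta plus TNF-alpha plus IFN-gamma mixture; protective hits raise ATP signal compared with cytokine alone wells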
[6] = target: T1, Cysteine protease ATG4B (Homo sapiens, UniProt Q9Y4P1); assay type: functional;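 note: Fluorescence-based dose-response confirmation assay measuring inhibition of ATG4B activity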
T1 sequence (Q9Y4P1 whole entry): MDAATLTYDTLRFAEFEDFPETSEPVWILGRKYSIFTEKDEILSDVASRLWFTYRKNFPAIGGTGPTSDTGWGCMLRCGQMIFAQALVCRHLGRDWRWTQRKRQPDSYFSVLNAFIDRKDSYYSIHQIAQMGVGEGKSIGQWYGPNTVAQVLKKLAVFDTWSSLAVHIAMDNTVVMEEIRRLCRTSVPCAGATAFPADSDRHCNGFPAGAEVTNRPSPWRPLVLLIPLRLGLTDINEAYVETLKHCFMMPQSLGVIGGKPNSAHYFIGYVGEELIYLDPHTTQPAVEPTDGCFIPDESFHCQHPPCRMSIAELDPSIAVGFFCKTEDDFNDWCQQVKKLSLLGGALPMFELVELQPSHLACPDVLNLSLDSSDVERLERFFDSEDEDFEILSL

[7] = Counterscreen for inhibitors of Trypanosoma brucei methionyl tRNA synthetase (MetRS): Luminescence-based cell-based high throughput dose response assay to identify compounds that are cytotoxic to Jurkat human T lymphocyte cells.; assay type: functional
[8] = tested on: Streptococcus sp. 'group A'; test: Streptococcus pyogenes SK(-)GAS viability under kanamycin – luminescence, BacTiterGlo, confirmation, counter-screen for streptokinase expression inhibitor project, dose response (AID 1900); assay type: functional, organism-based
[9] = target: T2, Heat shock factor protein 1 (Mus musculus, UniProt P38532); test: enhancement of HSF1-driven luciferase signal – cell-based, NIH3T3, luminescence, dose retest, confirmation (AID 435004); assay type: functional;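 note: stress induced by proteasome inhibitor MG132 added 30 min after compound; luciferase reporter driven by HSF1 response element in NIH3T3 cells; actives raise luminescence as potentiators of the MG132 stress response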
T2 sequence (P38532 whole entry): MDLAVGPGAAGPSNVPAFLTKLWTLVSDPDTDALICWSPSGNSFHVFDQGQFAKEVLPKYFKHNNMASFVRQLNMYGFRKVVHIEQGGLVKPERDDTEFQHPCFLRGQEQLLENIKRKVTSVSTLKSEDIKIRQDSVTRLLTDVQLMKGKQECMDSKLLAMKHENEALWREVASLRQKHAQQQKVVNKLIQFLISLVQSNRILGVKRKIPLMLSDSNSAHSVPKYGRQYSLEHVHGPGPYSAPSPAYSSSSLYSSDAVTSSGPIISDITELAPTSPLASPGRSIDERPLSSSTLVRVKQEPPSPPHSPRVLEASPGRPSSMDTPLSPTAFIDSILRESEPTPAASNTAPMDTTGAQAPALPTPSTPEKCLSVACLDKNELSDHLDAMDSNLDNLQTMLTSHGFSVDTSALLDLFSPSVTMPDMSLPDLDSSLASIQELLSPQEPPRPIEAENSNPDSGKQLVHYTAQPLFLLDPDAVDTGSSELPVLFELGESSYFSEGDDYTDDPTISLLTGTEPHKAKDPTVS

[10] = target: T3, Methionyl-tRNA synthetase, putative (Trypanosoma brucei brucei, UniProt Q38C91); assay type: functional, Trypanosoma brucei brucei strain 927/4 GUTat10.1
[11] = target: T3, Methionyl-tRNA synthetase, putative; assay type: functional, Trypanosoma brucei brucei strain 927/4 GUTat10.1; remark: listed apart in the source
[12] = target: T4, Streptokinase A (Streptococcus pyogenes serotype M1, UniProt P10520); test: viability-normalized secreted streptokinase activity reduction – plasminogen activation absorbance, OD405, dose response (AID 1914); assay type: functional, Streptococcus pyogenes M1 GAS;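 note: secreted streptokinase activity via plasminogen activation per viability signal from cell pellet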
T4 sequence (P10520 whole entry): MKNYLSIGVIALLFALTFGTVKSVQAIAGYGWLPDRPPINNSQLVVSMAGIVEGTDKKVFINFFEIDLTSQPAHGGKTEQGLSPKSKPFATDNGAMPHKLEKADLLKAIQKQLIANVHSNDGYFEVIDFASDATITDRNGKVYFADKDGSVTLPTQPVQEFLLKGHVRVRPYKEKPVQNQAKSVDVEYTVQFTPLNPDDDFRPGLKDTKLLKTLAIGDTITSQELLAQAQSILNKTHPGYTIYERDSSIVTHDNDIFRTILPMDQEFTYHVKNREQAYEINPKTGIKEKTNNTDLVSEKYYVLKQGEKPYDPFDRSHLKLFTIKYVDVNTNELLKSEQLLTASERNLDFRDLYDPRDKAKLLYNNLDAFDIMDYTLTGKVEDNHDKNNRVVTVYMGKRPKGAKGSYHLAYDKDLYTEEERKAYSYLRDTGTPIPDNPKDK

[13] = target: Phospholipase A2 (Homo sapiens, UniProt P04054); assay type: functional;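 note: confirmatory dose-response counterscreen on phospholipase A2, testing hits that came from an ultra-high-throughput screen for ATG4B inhibitors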
[14] = tested on: Streptococcus; test: GAS UMAA2166 growth inhibition – luminescence, BacTiterGlo, counter-screen for streptokinase expression inhibitor project, dose response (AID 1915); assay type: functional, organism-based;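 note: potency for reduction of bacterial viability or growth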
[15] = target: Botulinum neurotoxin type F (Clostridium botulinum, UniProt P30996); test: High-throughput multiplex microsphere dose response for inhibitors of toxin protease, specifically Botulinum neurotoxin light chain F protease, compounds from Cherry Pick 02.; assay type: functional; conditions: read-out: EC50_MICROM
[16] = viability loss in THP-1 monocytes – THP-1 cells, cytotoxicity control for Vif-APOBEC3G degradation inhibitor project, dose response (AID 1117359); assay type: functional; conditions: THP-1
[17] = HIV-1 Vif–A3G interaction blockers – biochemical, TR-FRET, GST-Vif 1-94, biotin-A3G peptide, dose response retest, primary screen (AID 1117319); assay type: functional;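 note: TR-FRET signal of purified GST-Vif binding a biotinylated A3G peptide; inhibitors lower the FRET signal by blocking Vif and A3G binding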
[18] = target: T5, Small ubiquitin-related modifier 1 (Homo sapiens, UniProt P63165); test: SUMO1 protein-protein binding blockers, potency – biochemical, FRET, dose response (AID 624383); assay type: functional; conditions: read-out: IC50_Mean
[19] = target: Arf-GAP with SH3 domain, ANK repeat and PH domain-containing protein 1 (Homo sapiens, UniProt Q9ULH1); assay type: functional;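 note: biochemical fluorescence polarization dose–response screen measuring inhibition of ASAP1; ASAP1 GAP domain stimulating GTP hydrolysis by truncated human ARF1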
[20] = target: ADP-ribosylation factor GTPase-activating protein 1 (Rattus norvegicus, UniProt Q62848); test: Fluorescence polarization-based biochemical high throughput dose response screening assay to identify inhibitors of ADP-ribosylation factor GTPase activating protein 1 (ARFGAP1).; assay type: functional
[21] = target: T5, Small ubiquitin-related modifier 1; test: SUMO1 protein interaction blockers, potency – biochemical, fluorescence polarization, uHTS hits, dose response (AID 624382); assay type: functional; conditions: read-out: IC50_Mean
[22] = target: Delta-type opioid receptor (Homo sapiens, UniProt P41143); test: Counterscreen for agonists of heterodimerization of the mu 1 (OPRM1) and delta 1 (OPRD1) opioid receptors: Luminescence-based cell-based high throughput dose response assay to identify agonists of OPRD1 homodimerization. [Related pubchem assays (depositor defined):AID504326, AID504355, AID504692, AID504904, AID504905]; assay type: functional
[23] = target: Mu-type opioid receptor (Homo sapiens, UniProt P35372); test: Counterscreen for agonists of heterodimerization of the mu 1 (OPRM1) and delta 1 (OPRD1) opioid receptors: Luminescence-based cell-based high throughput dose response assay to identify agonists of OPRM1 homodimerization.; assay type: functional;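 note: U2OS cells expressing OPRM1 and beta-arrestin as split beta-galactosidase partners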
[24] = target: T6, Short transient receptor potential channel 4 (Mus musculus, UniProt Q9QUQ5); test: calcium entry via TRPC4 opening agents – cell-based, HEK293 TRPC4/mu-opioid, Fluo-4 calcium, dose response (AID 434937); assay type: functional
T6 sequence (Q9QUQ5 whole entry): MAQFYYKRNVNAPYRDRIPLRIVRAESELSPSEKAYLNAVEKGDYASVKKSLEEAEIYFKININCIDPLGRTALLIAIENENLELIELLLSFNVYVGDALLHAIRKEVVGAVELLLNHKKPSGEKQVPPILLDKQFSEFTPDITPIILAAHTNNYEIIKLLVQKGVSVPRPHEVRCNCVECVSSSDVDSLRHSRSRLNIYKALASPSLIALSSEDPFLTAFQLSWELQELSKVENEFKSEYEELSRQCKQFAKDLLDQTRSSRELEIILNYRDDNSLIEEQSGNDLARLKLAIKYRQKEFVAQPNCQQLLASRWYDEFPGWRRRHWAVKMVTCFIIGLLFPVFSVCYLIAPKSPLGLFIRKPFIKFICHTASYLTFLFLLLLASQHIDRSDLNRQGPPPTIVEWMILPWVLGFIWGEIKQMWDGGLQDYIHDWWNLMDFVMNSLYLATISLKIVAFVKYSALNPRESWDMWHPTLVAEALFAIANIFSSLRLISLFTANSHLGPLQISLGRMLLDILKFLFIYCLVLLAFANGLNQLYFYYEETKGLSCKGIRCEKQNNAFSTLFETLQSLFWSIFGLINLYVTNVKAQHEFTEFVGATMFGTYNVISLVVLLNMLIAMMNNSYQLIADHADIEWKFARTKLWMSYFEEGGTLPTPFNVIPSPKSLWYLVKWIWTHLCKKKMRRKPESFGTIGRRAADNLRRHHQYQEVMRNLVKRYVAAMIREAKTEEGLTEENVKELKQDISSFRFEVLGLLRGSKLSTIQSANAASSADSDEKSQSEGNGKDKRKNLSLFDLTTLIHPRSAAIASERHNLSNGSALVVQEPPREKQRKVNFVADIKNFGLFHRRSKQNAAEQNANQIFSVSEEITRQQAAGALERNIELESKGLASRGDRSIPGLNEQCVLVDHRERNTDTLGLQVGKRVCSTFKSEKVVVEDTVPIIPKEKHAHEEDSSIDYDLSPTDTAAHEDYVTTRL

[25] = Late-stage results from the probe development effort to identify activators of OPRM1 and OPRD1 heterodimer formation: luminescence-based cell-based dose response counterscreen assay to determine cytotoxicity of test compounds.; assay type: functional
[26] = target: 5-hydroxytryptamine receptor 5A (Homo sapiens, UniProt P47898); test: Counterscreen for agonists of OPRM1-OPRD1 heterodimerization: luminescence-based cell-based high throughput dose response assay to identify agonists of 5-hydroxytryptamine (serotonin) 5A receptor (HTR5A). [Related pubchem assays (depositor defined):AID504326, AID504355, AID504692, AID504904, AID504905]; assay type: functional
[27] = tested on: H9c2; test: cells; assay type: functional, cell-based; conditions: Rattus norvegicus, H9c2, Myocardium;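 note: confirmatory concentration-response retest of ultra-high-throughput screening hits for modulation of myocardial damage; cell death induced by hydrogen peroxide oxidative stress; compound pretreatment for 60 min then peroxide exposure for 2 h; potency is for protecting the cells against peroxide damage rather than for killing them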
[28] = tested on: Vero; test: viability loss in Vero cells – cell-based, plate reader, cherry-pick samples, cytotoxicity control, dose response (AID 687020); assay type: functional; conditions: Chlorocebus sabaeus

T5 sequence (P63165 whole entry, the tested form may be a part): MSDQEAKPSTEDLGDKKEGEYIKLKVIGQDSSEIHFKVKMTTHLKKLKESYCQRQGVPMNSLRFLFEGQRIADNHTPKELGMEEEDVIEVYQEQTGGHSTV
T3 sequence (Q38C91 whole entry): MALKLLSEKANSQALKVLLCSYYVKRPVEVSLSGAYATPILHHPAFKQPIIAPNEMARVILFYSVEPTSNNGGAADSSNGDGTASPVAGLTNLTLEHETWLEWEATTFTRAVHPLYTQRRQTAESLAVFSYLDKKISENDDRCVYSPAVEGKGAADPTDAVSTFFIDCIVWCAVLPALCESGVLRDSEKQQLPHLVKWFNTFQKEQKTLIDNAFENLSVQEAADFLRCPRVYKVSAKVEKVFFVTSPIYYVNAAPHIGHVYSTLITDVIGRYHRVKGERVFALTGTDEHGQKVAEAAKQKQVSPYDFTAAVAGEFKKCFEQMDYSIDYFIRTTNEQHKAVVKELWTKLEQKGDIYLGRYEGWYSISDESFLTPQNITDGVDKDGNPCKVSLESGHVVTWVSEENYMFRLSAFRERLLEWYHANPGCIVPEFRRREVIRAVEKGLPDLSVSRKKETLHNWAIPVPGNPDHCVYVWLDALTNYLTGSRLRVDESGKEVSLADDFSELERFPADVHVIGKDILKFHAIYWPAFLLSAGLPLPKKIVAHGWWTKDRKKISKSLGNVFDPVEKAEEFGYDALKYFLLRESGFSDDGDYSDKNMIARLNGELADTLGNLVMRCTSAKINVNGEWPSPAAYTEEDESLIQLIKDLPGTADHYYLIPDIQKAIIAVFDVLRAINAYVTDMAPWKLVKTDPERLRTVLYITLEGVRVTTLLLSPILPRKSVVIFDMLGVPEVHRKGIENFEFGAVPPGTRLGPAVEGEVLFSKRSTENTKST
Chain of SWI/SNF-related matrix-associated actin-dependent regulator of chromatin subfamily A member 2 (P51531 whole entry): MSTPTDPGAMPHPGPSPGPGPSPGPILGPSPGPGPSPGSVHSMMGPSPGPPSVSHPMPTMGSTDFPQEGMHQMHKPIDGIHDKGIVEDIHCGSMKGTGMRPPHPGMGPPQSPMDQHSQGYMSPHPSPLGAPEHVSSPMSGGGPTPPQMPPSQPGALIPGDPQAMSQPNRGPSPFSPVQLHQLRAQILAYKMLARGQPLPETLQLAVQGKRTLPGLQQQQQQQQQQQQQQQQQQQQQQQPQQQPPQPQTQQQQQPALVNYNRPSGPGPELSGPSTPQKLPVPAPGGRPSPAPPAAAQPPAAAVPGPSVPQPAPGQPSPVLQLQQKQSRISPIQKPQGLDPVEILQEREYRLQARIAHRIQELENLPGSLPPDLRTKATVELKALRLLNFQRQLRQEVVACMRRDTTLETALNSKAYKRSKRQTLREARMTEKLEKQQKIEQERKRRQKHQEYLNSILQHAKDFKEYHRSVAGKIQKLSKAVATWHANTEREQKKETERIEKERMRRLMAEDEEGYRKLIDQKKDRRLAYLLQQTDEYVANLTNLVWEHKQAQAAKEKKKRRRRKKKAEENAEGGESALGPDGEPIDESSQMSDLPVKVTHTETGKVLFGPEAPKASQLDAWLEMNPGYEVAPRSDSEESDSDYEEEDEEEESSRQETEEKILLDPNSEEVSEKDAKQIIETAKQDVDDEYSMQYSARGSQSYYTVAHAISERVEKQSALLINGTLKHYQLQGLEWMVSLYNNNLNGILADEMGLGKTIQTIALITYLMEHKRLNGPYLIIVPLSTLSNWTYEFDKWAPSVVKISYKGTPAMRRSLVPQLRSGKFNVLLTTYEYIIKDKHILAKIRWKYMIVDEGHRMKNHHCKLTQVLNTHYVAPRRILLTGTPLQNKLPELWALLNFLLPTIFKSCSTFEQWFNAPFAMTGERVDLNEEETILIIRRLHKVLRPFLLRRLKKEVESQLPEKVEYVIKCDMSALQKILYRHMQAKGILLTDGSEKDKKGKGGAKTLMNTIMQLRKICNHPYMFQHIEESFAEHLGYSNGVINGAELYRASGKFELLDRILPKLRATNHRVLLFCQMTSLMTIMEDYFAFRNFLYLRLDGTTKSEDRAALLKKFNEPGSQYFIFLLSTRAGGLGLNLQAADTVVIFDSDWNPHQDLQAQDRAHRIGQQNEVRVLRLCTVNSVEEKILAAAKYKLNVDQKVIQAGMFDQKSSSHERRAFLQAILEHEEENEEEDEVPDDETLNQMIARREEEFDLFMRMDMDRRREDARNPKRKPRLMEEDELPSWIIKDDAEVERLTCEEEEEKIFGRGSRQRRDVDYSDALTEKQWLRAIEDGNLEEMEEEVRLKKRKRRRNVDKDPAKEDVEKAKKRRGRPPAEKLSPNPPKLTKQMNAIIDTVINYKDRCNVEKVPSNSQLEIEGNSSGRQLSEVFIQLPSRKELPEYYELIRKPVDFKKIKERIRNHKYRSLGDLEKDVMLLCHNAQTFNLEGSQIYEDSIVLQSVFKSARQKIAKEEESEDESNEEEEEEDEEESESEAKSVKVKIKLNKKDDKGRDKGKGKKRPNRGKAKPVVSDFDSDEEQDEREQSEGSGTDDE
Chain of Delta-type opioid receptor (P41143 whole entry): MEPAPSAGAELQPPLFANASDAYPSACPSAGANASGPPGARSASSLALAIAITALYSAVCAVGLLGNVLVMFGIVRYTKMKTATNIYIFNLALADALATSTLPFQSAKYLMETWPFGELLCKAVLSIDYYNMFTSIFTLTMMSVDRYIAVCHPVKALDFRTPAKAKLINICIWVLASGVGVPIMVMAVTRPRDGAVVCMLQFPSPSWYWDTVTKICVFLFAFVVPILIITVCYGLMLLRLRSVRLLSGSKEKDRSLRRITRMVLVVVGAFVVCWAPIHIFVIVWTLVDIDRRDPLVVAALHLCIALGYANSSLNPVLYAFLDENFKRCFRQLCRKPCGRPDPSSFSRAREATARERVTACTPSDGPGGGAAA
Chain of 5-hydroxytryptamine receptor 5A (P47898 whole entry): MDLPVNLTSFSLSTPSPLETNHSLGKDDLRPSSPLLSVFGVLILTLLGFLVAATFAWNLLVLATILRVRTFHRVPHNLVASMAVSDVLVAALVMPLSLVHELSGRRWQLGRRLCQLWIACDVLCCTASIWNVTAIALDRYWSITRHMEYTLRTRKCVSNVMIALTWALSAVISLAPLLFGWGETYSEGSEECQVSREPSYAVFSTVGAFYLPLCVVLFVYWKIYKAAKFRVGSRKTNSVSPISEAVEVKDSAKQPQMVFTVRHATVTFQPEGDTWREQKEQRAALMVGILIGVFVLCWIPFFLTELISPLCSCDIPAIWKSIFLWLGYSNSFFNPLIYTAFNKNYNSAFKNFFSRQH
Chain of Photoreceptor-specific nuclear receptor (Q9Y5X4 whole entry, the tested form may be a part): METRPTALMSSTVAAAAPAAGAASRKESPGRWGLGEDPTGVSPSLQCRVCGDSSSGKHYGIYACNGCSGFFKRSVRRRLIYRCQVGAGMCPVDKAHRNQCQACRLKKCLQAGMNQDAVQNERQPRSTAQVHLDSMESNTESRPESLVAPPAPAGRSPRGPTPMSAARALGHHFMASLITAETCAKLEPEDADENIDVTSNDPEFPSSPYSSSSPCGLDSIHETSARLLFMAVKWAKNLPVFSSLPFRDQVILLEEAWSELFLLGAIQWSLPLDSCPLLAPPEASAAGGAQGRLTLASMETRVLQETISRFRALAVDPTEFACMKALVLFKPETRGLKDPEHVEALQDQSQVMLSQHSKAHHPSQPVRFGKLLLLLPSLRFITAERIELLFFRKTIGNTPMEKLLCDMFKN
Chain of ADP-ribosylation factor GTPase-activating protein 1 (Q62848 whole entry): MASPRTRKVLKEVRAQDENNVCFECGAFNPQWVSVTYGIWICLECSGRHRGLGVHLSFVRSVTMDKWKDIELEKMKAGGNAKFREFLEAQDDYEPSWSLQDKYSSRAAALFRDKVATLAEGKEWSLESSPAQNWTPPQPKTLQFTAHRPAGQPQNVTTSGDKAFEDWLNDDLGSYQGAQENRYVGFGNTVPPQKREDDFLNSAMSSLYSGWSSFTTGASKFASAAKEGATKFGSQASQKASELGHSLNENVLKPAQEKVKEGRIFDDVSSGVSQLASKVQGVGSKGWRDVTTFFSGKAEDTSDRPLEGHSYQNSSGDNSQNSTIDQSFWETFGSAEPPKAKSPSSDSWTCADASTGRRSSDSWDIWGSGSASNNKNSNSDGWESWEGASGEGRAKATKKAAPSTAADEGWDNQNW
Chain of Mu-type opioid receptor (P35372 whole entry): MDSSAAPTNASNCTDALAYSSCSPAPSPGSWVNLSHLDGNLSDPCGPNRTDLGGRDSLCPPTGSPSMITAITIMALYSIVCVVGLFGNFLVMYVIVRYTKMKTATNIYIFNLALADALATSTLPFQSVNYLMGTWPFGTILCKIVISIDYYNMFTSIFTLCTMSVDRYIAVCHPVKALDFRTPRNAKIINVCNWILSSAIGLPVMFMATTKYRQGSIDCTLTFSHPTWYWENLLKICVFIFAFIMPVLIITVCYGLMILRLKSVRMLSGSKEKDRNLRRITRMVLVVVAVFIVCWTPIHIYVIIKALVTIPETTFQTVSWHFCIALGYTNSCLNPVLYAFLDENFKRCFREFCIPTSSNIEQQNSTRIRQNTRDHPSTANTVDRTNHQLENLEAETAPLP
Chain of Botulinum neurotoxin type F (P30996 1-436 limits assumed): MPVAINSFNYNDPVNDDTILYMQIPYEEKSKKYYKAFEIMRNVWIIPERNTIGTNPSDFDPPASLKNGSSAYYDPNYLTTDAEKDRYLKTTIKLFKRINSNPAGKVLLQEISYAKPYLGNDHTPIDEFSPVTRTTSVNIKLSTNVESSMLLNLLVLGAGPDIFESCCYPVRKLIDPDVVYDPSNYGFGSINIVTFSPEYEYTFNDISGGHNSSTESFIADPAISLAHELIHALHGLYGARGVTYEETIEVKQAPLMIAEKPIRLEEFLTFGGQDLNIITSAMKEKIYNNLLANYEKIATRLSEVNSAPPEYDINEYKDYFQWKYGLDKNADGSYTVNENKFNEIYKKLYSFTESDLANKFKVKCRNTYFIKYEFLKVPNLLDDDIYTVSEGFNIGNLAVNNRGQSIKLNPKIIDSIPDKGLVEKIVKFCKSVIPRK

Question: For `Cc1cnc(NC(=O)CN2CCN(c3ccccn3)CC2)s1`, which IC50 [1] is on record?
Answer: 1.17 µM (active)

Question: And the EC50 [2]?
Answer: > 91.2 µM (inactive)

Question: And the AC50 [3]?
Answer: > 52 µM (inactive)

Question: What about the EC50 [4] of the same compound?
Answer: > 91.2 µM (inactive)

Question: What about the AC50 [5] of the same compound?
Answer: 6.06 µM (active)

Question: For `S=C(NCCSCc1ccc(Cl)c(Cl)c1)Nc1ccccc1`, which IC50 [6] is on record?
Answer: 6.67 µM (active)

Question: And the IC50 [7]?
Answer: 47.9 µM (inactive)

Question: And the EC50 [8]?
Answer: 11.2 µM (active)

Question: What about the EC50 [9] of the same compound?
Answer: > 260 µM (inactive)

Question: And the IC50 [10]?
Answer: 11.1 µM (inactive)

Question: And the IC50 [11]?
Answer: 11.6 µM (inactive)

Question: What about the EC50 [12] of the same compound?
Answer: 14.4 µM (active)

Question: What about the IC50 [13] of the same compound?
Answer: 3.24 µM (active)

Question: And the EC50 [14]?
Answer: > 150 µM (not active)

Question: For `Cc1cccc2c1NC1(CCCC1)CC2C` (stereo not drawn), which EC50 [15] is on record?
Answer: > 20 µM (inactive)

Question: What about the CC50 [16] of the same compound?
Answer: 24.6 µM (active)

Question: What about the IC50 [17] of the same compound?
Answer: > 100 µM (active)

Question: Which results are given for `CC(=O)Nc1ccc(C(=O)Nc2nc(-c3cccnc3)cs2)cc1`?
Answer: IC50 [18]: 12.1 µM (active); IC50 [19]: 31.1 µM (inactive); IC50 [20]: 36.6 µM (inactive); IC50 [21]: > 66.6 µM (inactive)

Question: With `CCOC(=O)C1(CCc2ccccc2)CCN(Cc2ccc(NC(C)=O)cc2)CC1` as the compound, how does the EC50 [22] read?
Answer: 4.5 µM (active)

Question: What about the EC50 [23] of the same compound?
Answer: 24.3 µM (inactive)

Question: And the EC50 [24]?
Answer: 0.0267 µM (active)

Question: And the CC50 [25]?
Answer: > 10 µM (inactive)

Question: What about the EC50 [26] of the same compound?
Answer: > 92.5 µM (inactive)

Question: Which results are given for `COc1ccc(N(CC(=O)NCCSc2ccccc2)S(=O)(=O)c2ccccc2)c(OC)c1`?
Answer: IC50 [27]: 10.8 µM (active); AC50 [28]: 38.4 µM (active)
